Laboratory results published in US9156860B2, “Boron-containing small molecules” (Anacor Pharmaceuticals, Inc., priority 2011, dated 2015).

Experiments:
Assay type in all cases: in vivo
[1] = system: adult American dog tick (Dermacentor variabilis); assay: Example 4: efficacy against adult American dog tick infestations on dogs; conditions: for therapeutic efficacy: 24 hour post-treatment
Procedure: The therapeutic (knockdown) and residual efficacy of 7, administered orally at a point dosages of 5 and 25 mg/kg bodyweight, was evaluated against adult American dog tick (D. variabilis) and cat flea (C. felis) infestations on dogs. Sixteen (16) male and female beagle dogs were allocated to one of four treatment groups: Untreated control group (n=4 dogs); 7, 5 mg/kg liquid oral dosage form (n=4 dogs); 7, 25 mg/kg liquid oral dosage form (n=4 dogs); and 7, 25 mg/kg solid oral dosage form. Liquid dosage forms were prepared by dissolving 7 in a solution of 55% polyethylene glycol-300, 35% propylene glycol and 10% water at 25 mg/ml. Solid oral dosage form was prepared by thoroughly mixing 7 with microcrystalline cellulose and croscarmellose sodium (50:47:3, w/w) and placing into size 00 gelatin capsules. On Day 0, all dogs were orally administered 7 at the prescribed point dosages. Twenty-four (24) hours before treatment (Day −1), all dogs were infested with approximately 50 unfed, adult-stage American dog ticks (D. variabilis; approximately 50% male and 50% female). […] For all groups, dogs were re-infested with approximately 50 unfed, adult D. variabilis ticks on Days 5 and 12, with tick classification, counts and removal on Days 7 and 14 (approximately 48 hours after each infestation). For negative control and 7 (25 mg/kg solid oral dosage form) groups, dogs were re-infested with approximately 50 unfed, adult D. variabilis ticks on Days 19 and 28, with tick classification, counts and removal on Days 21 and 30. Immediately following removal of ticks on Day 30, dogs in the negative control and 7 (25 mg/kg solid oral dosage form) groups were infested with approximately 100 unfed, adult cat fleas (C. felis). Flea counts were conducted approximately 48 hours later, on Day 32.
The total number of live ticks or fleas (normal plus moribund classification) present on each dog was determined for each interval, and this number was transformed using the natural logarithm transformation plus one (Ln count+1); addition of one to each count served to adjust for counts that were zero. Geometric mean (GM) group tick or flea counts were obtained via back-transformation of group mean transformed counts and subtracting one. The negative control group was used for comparison to 7 groups for the calculation of percent efficacy (% reduction in live tick or flea counts). GM percent efficacy of treatments was calculated using the following formula: […]

[2] = system: brown dog tick (Rhipicephalus sanguineus); assay: Example 5: efficacy against brown dog tick infestations on dogs
Procedure: The therapeutic (knockdown) and residual efficacy of 7 and 8, each administered orally at a point dose of either 25 mg/kg or 50 mg/kg bodyweight, was evaluated against adult tick (Dermacentor variabilis and Rhipicephalus sanguineus) infestations on dogs. Twenty (20) male and female beagle dogs were allocated to one of five treatment groups, four (4) dogs per group: Untreated control; 7, 25 mg/kg; 7, 50 mg/kg; 8, 25 mg/kg; and 8, 50 mg/kg. On Day −1, all dogs were infested with approximately 50 unfed, adult D. variabilis ticks. On Day 0, dogs were orally administered gelatin capsules containing either 7 or 8 (50% technical active, 47% microcrystalline cellulose and 3% croscarmellose sodium, w/w) so as to achieve the desired point dosages. Ticks were counted and classified on all dogs, but not removed, on Day 1 (approximately 24 hours after treatment). On Day 2, approximately 48 hours after treatment, ticks were counted, classified and removed. Dogs were re-infested with the same number of D. variabilis ticks on Days 5, 12 and 19 with corresponding 48 hour post-infestation tick counts on Days 7, 14 and 21. Dogs were infested with approximately 50 unfed, adult brown dog ticks (Rhipicephalus sanguineus; approximately 50% male and 50% female) on Days 15 and 28, with corresponding 48 hour post-infestation tick counts on Days 17 and 30. GM percent efficacy of treatments against both tick species was calculated using the following formula: […]

[3] = system: adult American dog tick (Dermacentor variabilis); assay: Example 6: efficacy against adult American dog tick infestations on dogs, 48 h and 72 h counts; conditions: 50 mg/kg oral
Procedure: […] Twelve (12) male and female beagle dogs were allocated to three treatment groups: Untreated, negative control A; 7 group B; and 7 group C (n=4 dogs per group). Dogs were infested with approximately 50 unfed, adult D. variabilis ticks on Days −1, 5, 12, 19 and 28. For 7 group B dogs, tick counts and classification were conducted at 48 hour post-treatment or post-infestation intervals on Days 2, 7, 14, 21 and 30. For negative control group A and 7 group C dogs, tick counts and classification were conducted at 72 hour post-treatment or post-infestation intervals on Days 3, 8, 15, 22 and 31. On Day 0, dogs in groups B and C were orally administered gelatin capsules containing 7 (50% technical active, 47% microcrystalline cellulose and 3% croscarmellose sodium, w/w) at a point dose of 50 mg/kg. Both 48 hour and 72 hour counts in the treated groups were adjusted to counts from the same 72 hour negative control group. GM percent efficacy of treatments was calculated using the following formula:

[4] = 5 mg/kg oral, liquid dosage form, Day 2
[5] = 5 mg/kg oral, liquid dosage form, Day 7
[6] = 5 mg/kg oral, liquid dosage form, Day 14

## CC1(C)OB(O)c2ccc(C3=NOC(c4cc(Cl)c(Cl)c(Cl)c4)(C(F)(F)F)C3)cc21 (racemic) [Compound 7, 3,3-Dimethyl-5-(5-(3,4,5-trichlorophenyl)-5-(trifluoromethyl)-4,5-dihydroisoxazol-3-yl)benzo[c][1,2]oxaborol-1(3H)-ol]
[1]; 5 mg/kg liquid oral dosage form, all intervals
  therapeutic and residual efficacy: < 70%
[1]; [4]
  % efficacy: (68.2) %
  Geometric mean group live tick count: 10.6
[1]; [5]
  % efficacy: (0.0) %
  Geometric mean group live tick count: 36.5
[1]; [6]
  % efficacy: (0.0) %
  Geometric mean group live tick count: 36.8
[1]; 25 mg/kg oral, liquid dosage form
  therapeutic efficacy: 100%
[1]; 25 mg/kg oral, liquid dosage form, Day 2
  Geometric mean group live tick count: 0.0
[1]; 25 mg/kg oral, liquid dosage form, Day 7
  Geometric mean group live tick count: 2.6
[1]; 25 mg/kg oral, liquid dosage form, Day 14
  Geometric mean group live tick count: 16.9
[1]; 25 mg/kg oral, solid dosage form
  therapeutic efficacy: 100%
[1]; 25 mg/kg oral, solid dosage form, Day 2
  Geometric mean group live tick count: 0.0
[1]; 25 mg/kg oral, solid dosage form, Day 7
  Geometric mean group live tick count: 0.7
[1]; 25 mg/kg oral, solid dosage form, Day 14
  Geometric mean group live tick count: 6.3
[1]; 25 mg/kg oral, solid dosage form, Day 21
  Geometric mean group live tick count: 6.8
[1]; 25 mg/kg oral, solid dosage form, Day 30
  Geometric mean group live tick count: 10.7
[2]; 25 mg/kg oral capsule, Day 17
  % efficacy: (75.0) %
  Geometric mean group live tick count: 8.0
[2]; 50 mg/kg oral capsule, Day 17
  Geometric mean group live tick count: 1.6
[2]; 50 mg/kg oral capsule, Day 30
  % efficacy: (63.9) %
  Geometric mean group live tick count: 13.4
[3]; Week 0, 48 h count (Day 2)
  Geometric mean group live tick count: 0.3
[3]; Week 0, 72 h count (Day 3)
  Geometric mean group live tick count: 0.0
[3]; Week 1, 48 h count (Day 7)
  % efficacy: (85.1) %
  Geometric mean group live tick count: 2.6
[3]; Week 1, 72 h count (Day 8)
  % efficacy: (100) %
  Geometric mean group live tick count: 0.0
[3]; Week 2, 48 h count (Day 14)
  % efficacy: (78.3) %
  Geometric mean group live tick count: 6.1
[3]; Week 2, 72 h count (Day 15)
  % efficacy: (99.3) %
  Geometric mean group live tick count: 0.2
[3]; Week 3, 48 h count (Day 21)
  % efficacy: (13.0) %
  Geometric mean group live tick count: 10.7
[3]; Week 3, 72 h count (Day 22)
  % efficacy: (100) %
  Geometric mean group live tick count: 0.0
[3]; Week 4, 48 h count (Day 30)
  % efficacy: (35.5) %
  Geometric mean group live tick count: 16.3
[3]; Week 4, 72 h count (Day 31)
  Geometric mean group live tick count: 0.8
[3]; through week 3 (Day 22)
  Residual efficacy using 72 hour count intervals: > 99%
[3]; through week 4 (Day 30)
  Residual efficacy at 48 hour intervals: < 90%
